Assay results: paper PMC5086648, “Structural and Functional Elucidation of Peptide Ts11 Shows Evidence of a Novel Subfamily of Scorpion Venom Toxins” (Toxins, 2016)
Bridge positions count the residues as written; N and C are the ends. Peptide text beside a SMILES is read from it.

Key:
Shaker IR = test: TEVC electrophysiology, Shaker IR in Xenopus oocytes; format: cell-based; settings: 3 μM, native toxin, two-electrode voltage-clamp, ND96 pH 7.4, 18–22 °C, 250 ms depolarizations to 0 mV from −90 mV, n ≥ 3
Text: (§1) For the expression of the voltage gated potassium channels (rKV1.1, rKV1.2, hKV1.3, rKV1.4, rKV1.5, rKV1.6, Shaker IR, rKV2.1, hKV3.1, rKV4.2, hERG, KV10.1) and the voltage gated sodium channels (rNaV1.1, rNaV1.4, hNaV1.5, mNaV1.6 and DmNav1) in Xenopus oocytes, the linearized plasmids were transcribed using the T7 or SP6 mMESSAGE-mMACHINE transcription kit (Ambion, Waltham, MA, USA). The harvesting of stage V–VI oocytes from anaesthetized female X. laevis frog has been previously described. Oocytes were injected with 30–50 nL of cRNA at a concentration of 1 ng/nL using a micro-injector (Drummond Scientfic, Broomall, PA, USA). The oocytes were incubated in a solution containing (in mM): NaCl, 96; KCl, 2; CaCl2, 1.8; MgCl2, 2 and HEPES, 5 (pH 7.4), supplemented with 50 mg/L gentamycin sulfate.
(§2) Two-electrode voltage-clamp recordings were performed at room temperature (18–22 °C) using a Geneclamp 500 amplifier (Molecular Devices, Silicon Valley, CA, USA) controlled by a pClamp data acquisition system (Axon Instruments, Union City, CA, USA). Whole cell currents from oocytes were recorded 1–10 days after injection. Bath solution composition was ND96 (in mM): NaCl, 96; KCl, 2; CaCl2, 1.8; MgCl2, 2 and HEPES, 5 (pH 7.4) (in mM): NaCl, 2; KCl, 96; CaCl2, 1.8; MgCl2, 2 and HEPES, 5 (pH 7.4). […]

Nav1.1 (rNaV1.1) = test: TEVC electrophysiology, Nav1.1 in Xenopus oocytes; format: cell-based, rat; settings: 1 μM, two-electrode voltage-clamp, 100 ms depolarization to 0 mV from −90 mV, number of cells ≥ 3
Text: as §1, §2

Nav1.4 (rNaV1.4) = test: TEVC electrophysiology, Nav1.4 in Xenopus oocytes; format: cell-based, rat; settings: 1 μM, two-electrode voltage-clamp, 100 ms depolarization to 0 mV from −90 mV, number of cells ≥ 3
Text: as §1, §2

DmNav1 = test: TEVC electrophysiology, DmNav1 in Xenopus oocytes; format: cell-based, insect; settings: 1 μM, two-electrode voltage-clamp, 100 ms depolarization to 0 mV from −90 mV, number of cells ≥ 3
Text: as §1, §2

Nav1.5 (hNaV1.5) = test: TEVC electrophysiology, Nav1.5 in Xenopus oocytes; format: cell-based, human; settings: 1 μM, two-electrode voltage-clamp, 100 ms depolarization to 0 mV from −90 mV, number of cells ≥ 3
Text: as §1, §2

Nav channels = test: TEVC electrophysiology, Nav channel panel in Xenopus oocytes; format: cell-based; settings: discussion; tested at 1 μM
Text: as §1, §2

Kv1.2 (rKV1.2) = test: TEVC electrophysiology, Kv1.2 in Xenopus oocytes; format: cell-based, rat
Text: as §1, §2

hERG = test: TEVC electrophysiology, hERG in Xenopus oocytes; format: cell-based
Text: as §1, §2

Kv channels = test: TEVC electrophysiology, Kv channel panel in Xenopus oocytes; format: cell-based; settings: discussion, Kv channels overall
Text: as §1, §2

Nav1.6 (mNaV1.6) = test: TEVC electrophysiology, Nav1.6 in Xenopus oocytes; format: cell-based, mouse; settings: 1 μM, two-electrode voltage-clamp, 100 ms depolarization to 0 mV from −90 mV, number of cells ≥ 3
Text: as §1, §2

Kv1.3 (hKV1.3) = target: T1, Kv1.3 (hKV1.3) (Homo sapiens, UniProt P22001); test: TEVC electrophysiology, Kv1.3 in Xenopus oocytes; format: cell-based
T1 construct: expressed in transfected cells; host or cells: Xenopus laevis oocytes injected with cRNA
Text: as §1
Two-electrode voltage-clamp recordings were performed at room temperature (18–22 °C) using a Geneclamp 500 amplifier (Molecular Devices, Silicon Valley, CA, USA) controlled by a pClamp data acquisition system (Axon Instruments, Union City, CA, USA). Whole cell currents from oocytes were recorded 1–10 days after injection. Bath solution composition was ND96 (in mM): NaCl, 96; KCl, 2; CaCl2, 1.8; MgCl2, 2 and HEPES, 5 (pH 7.4) (in mM): NaCl, 2; KCl, 96; CaCl2, 1.8; MgCl2, 2 and HEPES, 5 (pH 7.4). Voltage and current electrodes were filled with KCl 3 M. Resistances of both electrodes were kept between […]. The elicited currents were sampled at 1 kHz and filtered at 0.5 kHz (for potassium currents) or sampled at 20 kHz and filtered at 2 kHz (for sodium currents) using a four-pole low-pass Bessel filter. Leak subtraction was performed using a -P/4 protocol.
The KV1.1–KV1.6, KV2.1, KV3.1 and KV4.2 and Shaker IR currents were evoked by 250 ms depolarizations to 0 mV followed by a 250 ms pulse to −50 mV, from a holding potential of −90 mV. Current traces of hERG channels were elicited by applying a pulse from −90 mV to +40 mV for 2.5 s followed by a step to −120 mV for 2.5 s. The Kv 10.1 currents were evoked by 1 s depolarization to 0 mV, from a holding potential of −90 mV. Sodium current traces were evoked, from a holding potential of −90 mV, by 100 ms depolarization to 0 mV. In order to investigate the current-voltage relationship, current traces were evoked by 10 mV depolarization steps from a holding potential of −90 mV.
To assess the concentration-response relationship of Ts11 on Kv1.3, data were fitted with the Hill equation: y = 100/[1 + (IC50/[toxin])^h], where y is the amplitude of the toxin-induced effect, IC50 is the toxin concentration at half maximal efficacy, [toxin] is the toxin concentration and h is the Hill coefficient (Hill coefficient: 0.8). Current-voltage relationship was determined by 100 ms step depolarization between −90 and +70 mV, using 10 mV increments. All data represent at least 3 independent experiments (n = 3) and are presented as mean ± standard error.

Kv10.1 = test: TEVC electrophysiology, Kv10.1 in Xenopus oocytes; format: cell-based; settings: 3 μM, native toxin, two-electrode voltage-clamp, ND96 pH 7.4, 18–22 °C, 1 s depolarization to 0 mV from −90 mV, n ≥ 3
Text: as §1, §2

Kv4.2 (rKV4.2) = test: TEVC electrophysiology, Kv4.2 in Xenopus oocytes; format: cell-based, rat
Text: as §1, §2

[1] = 3 μM, native toxin, two-electrode voltage-clamp, Xenopus oocytes, ND96 pH 7.4, 18–22 °C, 250 ms depolarizations to 0 mV from −90 mV, n ≥ 3
[2] = 5 μM, compared with 3 μM, data not shown

T1 sequence (P22001 whole entry): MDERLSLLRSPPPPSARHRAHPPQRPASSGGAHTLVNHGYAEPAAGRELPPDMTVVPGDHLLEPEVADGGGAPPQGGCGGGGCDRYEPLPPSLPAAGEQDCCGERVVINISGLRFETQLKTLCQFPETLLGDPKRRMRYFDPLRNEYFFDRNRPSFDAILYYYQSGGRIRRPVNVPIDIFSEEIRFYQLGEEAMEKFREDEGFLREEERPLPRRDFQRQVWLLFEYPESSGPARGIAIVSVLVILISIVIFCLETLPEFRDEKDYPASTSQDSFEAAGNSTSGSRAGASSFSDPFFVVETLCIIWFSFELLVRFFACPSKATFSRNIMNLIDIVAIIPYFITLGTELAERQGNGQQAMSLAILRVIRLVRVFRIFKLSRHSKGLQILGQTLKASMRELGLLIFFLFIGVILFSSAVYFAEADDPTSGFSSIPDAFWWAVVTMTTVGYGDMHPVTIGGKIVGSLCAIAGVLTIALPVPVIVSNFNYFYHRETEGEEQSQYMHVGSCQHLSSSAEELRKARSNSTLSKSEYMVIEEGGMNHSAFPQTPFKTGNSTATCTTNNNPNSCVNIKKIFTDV

With `CC(C)C[C@@H]1NC(=O)CNC(=O)[C@@H](NC(=O)[C@H](CCCCN)NC(=O)[C@@H]2CCCN2C(=O)[C@@H](N)CCCCN)CSSC[C@@H]2NC(=O)[C@@H]3CSSC[C@@H]4NC(=O)[C@H](CCCCN)NC(=O)CNC(=O)[C@H](CO)NC(=O)[C@H](CO)NC(=O)[C@H](CSSC[C@H](NC(=O)[C@H](C)NC(=O)CNC(=O)[C@H](CC(N)=O)NC(=O)[C@H](C(C)C)NC4=O)C(=O)N[C@@H](CC(=O)O)C(=O)N[C@H](C(=O)N[C@@H](CO)C(=O)O)CSSC[C@H](NC1=O)C(=O)N[C@@H](CCCNC(=N)N)C(=O)N[C@@H](Cc1ccc(O)cc1)C(=O)N[C@@H](CCCNC(=N)N)C(=O)N3)NC(=O)CNC(=O)CNC(=O)[C@H](CO)NC2=O` [Ts11] (H-KPKCGLCRYRCCSGGCSSGKCVNGACDCS-OH; disulfide 4-12, 7-28, 11-21, 16-26; N-terminus and C-terminus assumed) as the compound, how does the “blocking effect on Shaker IR” value (Shaker IR) read?
The value was 10%.

And the “activity on Nav1.1” value (Nav1.1 (rNaV1.1))?
The value was “inactive”.

And the “activity on Nav1.4” value (Nav1.4 (rNaV1.4))?
The value was “inactive”.

And the “activity on insect channel DmNav1” value (DmNav1)?
Its value is “inactive”.

And the “activity on Nav1.5” value (Nav1.5 (hNaV1.5))?
The value was “inactive”.

And the “activity on Nav channels overall (in words)” value (Nav channels)?
Its value is “does not target Nav channels”.

What about the “blocking effect on Kv1.2” value (Kv1.2 (rKV1.2); [1]) of the same compound?
Its value is 25%.

What about the “increase in blockage at higher concentration, Kv1.2” value (Kv1.2 (rKV1.2); [2]) of the same compound?
Its value is “no significant increase in blockage”.

And the “blocking effect on hERG” value (hERG; 3 μM, native toxin, two-electrode voltage-clamp, Xenopus oocytes, pH 7.4, 18–22 °C, pulse −90 mV to +40 mV for 2.5 s, step to −120 mV for 2.5 s, n ≥ 3)?
Its value is 12%.

And the “increase in blockage at higher concentration, hERG” value (hERG; 10 μM, compared with 3 μM, data not shown)?
Its value is “no significant increase in blockage”.

And the “effect on kinetics of Kv channel gating” value (Kv channels)?
The value was “without altering the kinetics of channel gating”.

And the “potency as Kv channel blocker (in words)” value (Kv channels)?
Its value is “not a potent blocker of Kv channels”.

And the “activity on Nav1.6” value (Nav1.6 (mNaV1.6))?
Its value is “inactive”.

What about the “blocking effect on Kv1.3” value (Kv1.3 (hKV1.3); [1]) of the same compound?
The value was 27%.

And the “alteration of channel activation properties (Kv1.3)” value (Kv1.3 (hKV1.3); 5 μM, V1/2 with toxin vs control)?
The value was “No significant alteration of properties of channel activation”.

And the “Hill coefficient, Kv1.3” value (Kv1.3 (hKV1.3); concentration-response fit, Hill equation, n ≥ 3)?
Its value is 0.8.

What about the IC50 (Kv1.3 (hKV1.3); concentration-response, Hill equation fit, two-electrode voltage-clamp, Xenopus oocytes, pH 7.4, 18–22 °C, mean ± standard error, n ≥ 3, read-out: IC50, inhibition of Kv1.3 currents) of the same compound?
Its IC50 is 17.1 ± 3.3 µM.

And the “V1/2 of Kv1.3 activation” value (Kv1.3 (hKV1.3); toxin condition, 5 μM (Figure 3B), normalized peak Itail, control 17.3 ± 0.6 mV, n ≥ 3, mean ± standard error)?
The value was 17.6 ± 0.7 mV.

What about the “blocking effect on Kv10.1” value (Kv10.1) of the same compound?
Its value is 15%.

What about the “blocking effect on Kv4.2” value (Kv4.2 (rKV4.2); [1]) of the same compound?
The value was 25%.

And the “increase in blockage at higher concentration, Kv4.2” value (Kv4.2 (rKV4.2); [2])?
Its value is “no significant increase in blockage”.
